Entries after “also recorded” stand apart in the source; their conditions may differ. Like-named read-outs stand apart in the source and are kept apart here.
Columns and labels:
Human keratinocytes = assay: 3H-Thymidine incorporation (keratinocyte proliferation); format: cell-based; details: for increase of thymidine incorporation/proliferation over ethanol control: retinol 2.5×10^-8 M; for activity at 0.025 µM: 2.5 × 10^-8 M
Protocol: (§1) Human keratinocytes, isolated from neonatal foreskin by trypsin treatment were grown in Dulbecco Modification Eagle (DME) Hams F12 (1:1) medium/10% fetal calf serum in the presence of irradiated 3T3 mouse fibroblasts for establishing dividing keratinocyte colonies. Cells were grown under the above condition until their second passage and kept frozen for future use. […] On day 7, when the cells were 80-90% confluent, they were trypsinized and plated in the serum-free medium for the various experiments.
The incorporation of […] by cultured keratinocytes was used as an assay of keratinocyte proliferation. Thymidine is one of four deoxynucleosides which are the monomeric units of DNA, the universal library of genetic information in the animal kingdom. Prior to cell division of a somatic cell such as a keratinocyte, the complete genome of the cell undergoing cell division is replicated. This involves large scale DNA synthesis by the cell and enables both daughter cells to receive identical copies of the genetic material. When ^3 H-thymidine is included in the culture media of keratinocytes which are synthesizing DNA in preparation for cell division then the labelled nucleoside is incorporated into the newly synthesized DNA. The extent of incorporation of ^3 H-thymidine into a population of cells is proportional to the rate of DNA synthesis by this population of cells and therefore an indication of their cellular proliferation.
Keratinocytes (that were cultured as described above) were plated in 24 well plates at a density of 40,000 cells per well in 1 ml media. After incubation for four days or until the cells were 60-70% confluent, the media was changed. Test compounds were added (in triplicate) to the wells 24 hours after the media change, and four hours later 1μCi^3 H-Thymidine in 50 μl media was added per well. Cells were incubated for a further 24 hours. Media was removed from the cells, 10% ice cold trichloroacetic acid (TCA) added and plates were incubated on ice for 30 minutes. Cells were washed five times with 5% TCA and allowed to dissolve in 500 μl 0.1M NaOH for at least one hour (usually overnight). The preparations were neutralized with 0.1M HCl; 50 μl of the cell preparation was used to determine total protein content. Disintegrations per minute (DPM) from ^3 H labelling of DNA was determined by liquid scintillation counting of […] of the cell preparation. Thymidine incorporation results were expressed as DPM/μg protein.

[1] = test system: TGase I (keratinocyte transglutaminase level); assay: Transglutaminase (TGase I) ELISA assay (keratinocyte differentiation); format: cell-based, human
Protocol: as §1
During the process of terminal differentiation in the epidermis, a 15 nm thick layer of protein, known as the cornified envelope (CE) is formed on the inner surface of the cell periphery. The CE is composed of numerous distinct proteins which have been cross-linked together by the formation of N^ε -(γ-glutamyl) lysine isodipeptide bonds catalyzed by the action of at least two different transglutaminases (TGases) expressed in the epidermis. TGase I is expressed in abundance in the differentiated layers of the epidermis, especially the granular layer, but is absent in the undifferentiated basal epidermis. Thus TGase I is a useful marker of epidermal keratinocyte differentiation with high TGase I levels indicating a more differentiated state. An ELISA based TGase I assay, using a TGase I antibody, was used to assess the state of differentiation of the cultured keratinocytes in the examples that follow.
Keratinocytes (cultured as described above) were plated in 96 well plates at a density of 3,000 cells per well in 200 μl media. After incubation for four days the media was changed to media containing test compounds (six replicates per test). The cells were cultured for a further 72 hours after which time the media was aspirated and the plates stored at -70° C. Plates were removed from the freezer, and the cells washed with PBS. 100 μl sterile water was added and the cells were freeze fractured by freezing at -70° C. then thawing. The cells were incubated for one hour at room temperature (R/T) with PBS/3% BSA (wash buffer, bovine serum albumin), then rinsed with a fresh aliquot of wash buffer. Cells were incubated with 50 μl of primary antibodies monoclonal anti-human transglutaminase (IgG) obtained from Amersham (mouse) diluted 1:300 in wash buffer for one hour, 37° C. then rinsed two times with wash buffer. Cells were then incubated with 50 μl of secondary antibody (Feb fragment, peroxidase conjugated anti-mouse IgG obtaining from Amersham) diluted 1:200 in wash buffer for one hour at 37° C., then rinsed two times with wash buffer. Cells were incubated with substrate solution (4 mg o-phenylene diamine and 3.3 μl 30% H2 O2 in 10 ml 0.1M citrate buffer pH 5.0) for five minutes, R/T, in darkness (under aluminum foil). The reaction was stopped by the addition of 50 μl 4N H2 SO4. The absorbance of samples was read at 492 nm in the plate reader. Out of the six replicates, four were treated with both antibodies, two were treated only with the secondary antibody (i.e., to determine background binding of enzyme conjugated Ab). TGase levels were determined by subtracting background from the readings from each treatment and determining mean ±s.d. for the replicates exposed to both Ab.

[2] = concentrations as in the respective Example
[3] = Table 3B, RA, RP 2.5 × 10^-7 M, linoleoyl-DEA 10^-6 M, alone or combined, n = 3
[4] = Table 4A, RA, retinol 2.5 × 10^-7 M, cocoyl-DEA 10^-7 M, alone or combined, n = 3
[5] = Table 4B, RA, retinol 2.5 × 10^-8 M, cocoyl-MEA 10^-8 M, alone or combined, n = 3
[6] = Table 5B, RA, retinol 2.5 × 10^-8 M, methyl linoleate 10^-8 M, alone or combined, n = 3

CC1=C(/C=C/C(C)=C/C=C/C(C)=C/C(=O)O)C(C)(C)CCC1 [RA, retinoic acid]
increase of thymidine incorporation/proliferation over ethanol control (Human keratinocytes; Example 2A, RA, linoleoyl-DEA 10^-9 M): 26%
increase of thymidine incorporation/proliferation over ethanol control (Human keratinocytes; Example 4C, RA, palmitoyl-MEA 10^-6 M): 16%
increase of thymidine incorporation/proliferation over ethanol control (Human keratinocytes; Example 4D, RA, linoleoyl-MEA 10^-9 M): 47%
activity at 0.25 µM (Human keratinocytes; Homo sapiens, Keratinocyte, 24 h, Table 1A, first RA/ROH pair, 2.5 × 10^-7 M, 24 h, n = 3, read-out: thymidine incorporation, % control): 118%
activity at 0.25 µM (Human keratinocytes; Homo sapiens, Keratinocyte, 24 h, Table 1A, second RA/ROH pair, 2.5 × 10^-7 M, 24 h, n = 3, read-out: thymidine incorporation, % control): 128%
activity at 0.25 µM (Human keratinocytes; Homo sapiens, Keratinocyte, 24 h, Table 1A, third RA/ROH pair, 2.5 × 10^-7 M, 24 h, n = 3, read-out: thymidine incorporation, % control): 122%
activity at 0.0025 µM (Human keratinocytes; Homo sapiens, Keratinocyte, 24 h, Table 3A, RA 2.5 × 10^-9 M, RP 2.5 × 10^-7 M, linoleoyl-DEA 10^-8 M, alone or combined, n = 3, read-out: thymidine incorporation, % control): 117%
activity at 0.25 µM (Human keratinocytes; Homo sapiens, Keratinocyte, 24 h, Table 7A, 2.5 × 10^-7 M, 24 h, n = 9, read-out: mean Thymidine incorp/μg protein ± s.d): 113 ± 10.9%
activity at 0.25 µM (Human keratinocytes; Homo sapiens, Keratinocyte, 24 h, Table 7A, 2.5 × 10^-7 M, 24 h, n = 9, read-out: thymidine incorporation, % control): 113%
activity at 0.025 µM (Human keratinocytes; Homo sapiens, Keratinocyte, 24 h, Table 7A, 24 h, n = 9, read-out: mean Thymidine incorp/μg protein ± s.d): 125 ± 13.9%
activity at 0.025 µM (Human keratinocytes; Homo sapiens, Keratinocyte, 24 h, Table 7A, 24 h, n = 9, read-out: thymidine incorporation, % control): 126%
activity at 0.0025 µM (Human keratinocytes; Homo sapiens, Keratinocyte, 24 h, Table 7A, 2.5 × 10^-9 M, 24 h, n = 9, read-out: mean Thymidine incorp/μg protein ± s.d): 121 ± 12.8%
activity at 0.0025 µM (Human keratinocytes; Homo sapiens, Keratinocyte, 24 h, Table 7A, 2.5 × 10^-9 M, 24 h, n = 9, read-out: thymidine incorporation, % control): 121%
activation at 0.0025 µM (Human keratinocytes; Homo sapiens, Keratinocyte, read-out: increase of thymidine incorporation/proliferation over ethanol control): 17%
mean Thymidine incorp./μg protein ± s.d (Human keratinocytes; Table 1A, first RA/ROH pair, 2.5 × 10^-7 M, 24 h, n = 3): 2475 ± 116 DPM/μg protein
mean Thymidine incorp./μg protein ± s.d (Human keratinocytes; Table 1A, second RA/ROH pair, 2.5 × 10^-7 M, 24 h, n = 3): 2686 ± 72 DPM/μg protein
mean Thymidine incorp./μg protein ± s.d (Human keratinocytes; Table 1A, third RA/ROH pair, 2.5 × 10^-7 M, 24 h, n = 3): 2556 ± 80 DPM/μg protein
mean Thymidine incorp./μg protein ± s.d (Human keratinocytes; Table 2A, RA, ROH 2.5 × 10^-8 M, linoleoyl-DEA 10^-9 M, alone or combined, 24 h, normalized to ethanol control, n = 9): 1.255 ± 0.139
mean Thymidine incorp./μg protein ± s.d (Human keratinocytes; Table 3A, RA 2.5 × 10^-9 M, RP 2.5 × 10^-7 M, linoleoyl-DEA 10^-8 M, alone or combined, n = 3): 1990 ± 61 DPM/μg protein
mean Thymidine incorp./μg protein ± s.d (Human keratinocytes; Table 4C, RA, retinol 2.5 × 10^-8 M, palmitoyl-MEA 10^-6 M, alone or combined, control = 1.000, n = 3): 1.164 ± 0.113
thymidine incorporation, % control (Human keratinocytes; Table 4C, RA, retinol 2.5 × 10^-8 M, palmitoyl-MEA 10^-6 M, alone or combined, n = 3, 1440 min): 116%
thymidine incorporation, % control (Human keratinocytes; Table 4D, RA, ROH 2.5 × 10^-8 M, linoleoyl-MEA 10^-9 M, alone or combined, 24 h, n = 3): 147%
mean Thymidine incorp./μg protein ± s.d (Human keratinocytes; Table 4D, RA, ROH 2.5 × 10^-8 M, linoleoyl-MEA 10^-9 M, alone or combined, 24 h, normalized to ethanol control, n = 3): 1.47 ± 0.36
effect on keratinocyte proliferation, in words (Human keratinocytes; [2]): significantly increased keratinocyte proliferation; also recorded: increased thymidine incorporation
activity at 0.25 µM ([1]; Homo sapiens, Keratinocyte, 72 h, Table 1B, 2.5 × 10^-7 M, 72 h, n = 3, read-out: Transglutaminase level, % control): 20%
activity at 0.025 µM ([1]; Homo sapiens, Keratinocyte, 72 h, Table 1B, 2.5 × 10^-8 M, 72 h, n = 3, read-out: Transglutaminase level, % control): 62%
activity at 0.0025 µM ([1]; Homo sapiens, Keratinocyte, 72 h, Table 1B, 2.5 × 10^-9 M, 72 h, n = 3, read-out: Transglutaminase level, % control): 84%
activity at 1 µM ([1]; Homo sapiens, Keratinocyte, Table 5A, RA, retinol 2.5 × 10^-7 M, linoleic acid 10^-6 M, alone or combined, n = 3, read-out: TGase (TG1) level, % control): 0%
activity at 0.25 µM ([1]; Homo sapiens, Keratinocyte, Table 8A, 2.5 × 10^-7 M, n = 3, read-out: TGase, % control): 34%
activity at 0.025 µM ([1]; Homo sapiens, Keratinocyte, Table 8A, 2.5 × 10^-8 M, n = 3, read-out: TGase, % control): 64%
activity at 0.0025 µM ([1]; Homo sapiens, Keratinocyte, Table 8A, 2.5 × 10^-9 M, n = 3, read-out: TGase, % control): 87%
activity at 0.25 µM ([1]; Homo sapiens, Keratinocyte, Table 8B, 2.5 × 10^-7 M, n = 3, read-out: TGase, % control): 12%
mean Transglutaminase ELISA level ± s.d ([1]; Table 1B, 2.5 × 10^-7 M, 72 h, n = 3): 0.088 ± 0.015
mean Transglutaminase ELISA level ± s.d ([1]; Table 1B, 2.5 × 10^-8 M, 72 h, n = 3): 0.268 ± 0.068
mean Transglutaminase ELISA level ± s.d ([1]; Table 1B, 2.5 × 10^-9 M, 72 h, n = 3): 0.360 ± 0.067
TGase (TG1) level, % control ([1]; Table 2B, RA, ROH 2.5 × 10^-7 M, linoleoyl-DEA 10^-6 M, alone or combined, 72 h, n = 9): 28%
mean TGase ± s.d ([1]; Table 2B, RA, ROH 2.5 × 10^-7 M, linoleoyl-DEA 10^-6 M, alone or combined, 72 h, normalized to ethanol control, n = 9): 0.283 ± 0.470
TGase (TG1) level, % control [1, 3]: 33%
mean TGase ± s.d [1, 3]: 0.073 ± 0.022
TGase (TG1) level, % control [1, 4]: 33%
mean TGase ± s.d [1, 4]: 0.058 ± 0.098
TGase (TG1) level, % control [1, 5]: 29%
mean TGase ± s.d [1, 5]: 0.036 ± 0.009
mean TGase ± s.d ([1]; Table 5A, RA, retinol 2.5 × 10^-7 M, linoleic acid 10^-6 M, alone or combined, n = 3): -0.004 ± 0.103
TGase (TG1) level, % control [1, 6]: 32%
mean TGase ± s.d [1, 6]: 0.092 ± 0.030
mean TGase level ± s.d ([1]; Table 6A (Effect on Keratinocyte TGase), RA, ROH 2.5 × 10^-7 M, formamide 10^-7 M, alone or combined, 72 h, n = 3): 0.137 ± 0.024
TGase (TG1) level, % control ([1]; Table 6A, RA, ROH 2.5 × 10^-7 M, formamide 10^-7 M, alone or combined, 72 h, n = 3): 28%
mean TGase level ± s.d ([1]; Table 6B (Effect on Keratinocyte TGase), RA, ROH 2.5 × 10^-7 M, acetamide 10^-7 M, alone or combined, 72 h, n = 3): 0.226 ± 0.069
TGase (TG1) level, % control ([1]; Table 6B, RA, ROH 2.5 × 10^-7 M, acetamide 10^-7 M, alone or combined, 72 h, n = 3): 46%
mean TGase level ± s.d ([1]; Table 6C (Effect on Keratinocyte TGase), RA, ROH 2.5 × 10^-7 M, pentanoyl-DEA 10^-7 M, alone or combined, 72 h, n = 3): 0.088 ± 0.015
mean TGase ± s.d ([1]; Table 8A, 2.5 × 10^-7 M, n = 3): 0.073 ± 0.022
mean TGase ± s.d ([1]; Table 8A, 2.5 × 10^-8 M, n = 3): 0.138 ± 0.034
mean TGase ± s.d ([1]; Table 8A, 2.5 × 10^-9 M, n = 3): 0.190 ± 0.091
mean TGase ± s.d ([1]; Table 8B, 2.5 × 10^-7 M, n = 3): 0.015 ± 0.025
effect on keratinocyte TG1 levels / differentiation, in words [1, 2]: decreased keratinocyte differentiation; also recorded: repressed keratinocyte TG 1 levels completely; also recorded: significantly decreased keratinocyte TGase levels; also recorded: decreased transglutaminase I levels
